Assay results from patent US10065970B2 (Genentech, Inc., priority 2015, dated 2018).
Read-outs that look alike come from different tables or passages of the source.

Target: PI3Kα (alpha) (Homo sapiens (Human), UniProt P42336)
Assay: p110α (alpha) PI3K Binding Assay (ADP-Glo lipid kinase reaction)
Format: biochemical
Conditions: read-out: PI3Kα-(alpha) ATP (Ki) micromolar
Procedure: The ability of a compound of the invention to act as an inhibitor of PI3Kα was determined using the methods of Example 901.
PI3K Binding assays are intended for determining the biochemical potency of small molecule PI3K inhibitors. The PI3K lipid kinase reaction is performed in the presence of PIP2:3PS lipid substrate (Promega #V1792) and ATP. Following the termination if the kinase reaction, turnover of ATP to ADP by the phosphorylation of the lipid substrate is detected using the Promega ADP-Glo™ (Promega #V1792) assay. Reactions are carried out using the following conditions:
After 120 minutes of reaction time, the kinase reaction is terminated. Any ATP remaining after the reaction is depleted, leaving only ADP. Then the Kinase Detection Reagent is added to convert ADP to ATP, which is used in a coupled luciferin/luciferase reaction. The luminescent output is measured and is correlated with kinase activity.
All reactions are carried out at room temperature. A 3 μl mixture (1:1) of enzyme/lipid substrate solution is added to a 384 well white assay plate (Perkin Elmer #6007299) containing 50 nl of test compound or DMSO only for untreated controls. The reaction is started by the addition of 2 μl ATP/MgCl2. The kinase reaction buffer contains 50 mM HEPES, 50 mM NaCl, 3 mM MgCl2, 0.01% BSA, 1% DMSO, and enzyme and substrate concentrations as indicated in the above table. The reaction is stopped by the addition of 10 μL ADP-Glo reagent. Plates are read in a Perkin Elmer Envision system using luminescence mode. 10 point dose response curves are generated for each test compound. Ki values for each compound are determined using the Morrison Equation.

[1] = PI3K alpha 0.2 nM, ATP 40 μM, PIP2:3PS 50 μM, 120 min, room temperature, Ki by Morrison Equation

PI3Kα (alpha), sequence (P42336 whole entry): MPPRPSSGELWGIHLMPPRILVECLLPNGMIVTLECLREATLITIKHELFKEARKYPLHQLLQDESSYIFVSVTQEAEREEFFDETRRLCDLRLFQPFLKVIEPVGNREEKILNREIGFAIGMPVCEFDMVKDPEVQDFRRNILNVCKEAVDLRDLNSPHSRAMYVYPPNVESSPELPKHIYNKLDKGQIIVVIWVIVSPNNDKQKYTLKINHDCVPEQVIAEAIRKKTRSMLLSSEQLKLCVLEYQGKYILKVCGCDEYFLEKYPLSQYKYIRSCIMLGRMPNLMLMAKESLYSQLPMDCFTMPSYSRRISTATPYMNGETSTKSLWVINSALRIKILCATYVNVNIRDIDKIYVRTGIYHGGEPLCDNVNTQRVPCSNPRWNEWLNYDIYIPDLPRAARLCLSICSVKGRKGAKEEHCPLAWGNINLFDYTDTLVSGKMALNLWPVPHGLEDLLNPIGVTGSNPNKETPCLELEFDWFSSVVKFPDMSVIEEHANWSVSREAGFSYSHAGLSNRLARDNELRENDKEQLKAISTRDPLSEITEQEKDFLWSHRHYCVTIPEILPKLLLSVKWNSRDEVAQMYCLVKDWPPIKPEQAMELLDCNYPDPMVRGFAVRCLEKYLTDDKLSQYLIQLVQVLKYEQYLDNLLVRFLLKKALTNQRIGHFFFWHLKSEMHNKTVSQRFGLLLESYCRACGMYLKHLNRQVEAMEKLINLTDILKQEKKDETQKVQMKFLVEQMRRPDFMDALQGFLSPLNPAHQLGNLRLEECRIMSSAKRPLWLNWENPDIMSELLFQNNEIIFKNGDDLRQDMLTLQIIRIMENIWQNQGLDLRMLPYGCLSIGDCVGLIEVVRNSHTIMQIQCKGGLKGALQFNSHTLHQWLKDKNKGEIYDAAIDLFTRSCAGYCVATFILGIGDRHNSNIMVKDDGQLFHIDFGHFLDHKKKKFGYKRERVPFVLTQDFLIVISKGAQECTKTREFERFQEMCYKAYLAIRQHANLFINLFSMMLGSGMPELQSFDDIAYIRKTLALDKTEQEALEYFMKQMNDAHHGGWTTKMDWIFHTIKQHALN
PI3Kα (alpha), sequence (P27986 whole entry partner): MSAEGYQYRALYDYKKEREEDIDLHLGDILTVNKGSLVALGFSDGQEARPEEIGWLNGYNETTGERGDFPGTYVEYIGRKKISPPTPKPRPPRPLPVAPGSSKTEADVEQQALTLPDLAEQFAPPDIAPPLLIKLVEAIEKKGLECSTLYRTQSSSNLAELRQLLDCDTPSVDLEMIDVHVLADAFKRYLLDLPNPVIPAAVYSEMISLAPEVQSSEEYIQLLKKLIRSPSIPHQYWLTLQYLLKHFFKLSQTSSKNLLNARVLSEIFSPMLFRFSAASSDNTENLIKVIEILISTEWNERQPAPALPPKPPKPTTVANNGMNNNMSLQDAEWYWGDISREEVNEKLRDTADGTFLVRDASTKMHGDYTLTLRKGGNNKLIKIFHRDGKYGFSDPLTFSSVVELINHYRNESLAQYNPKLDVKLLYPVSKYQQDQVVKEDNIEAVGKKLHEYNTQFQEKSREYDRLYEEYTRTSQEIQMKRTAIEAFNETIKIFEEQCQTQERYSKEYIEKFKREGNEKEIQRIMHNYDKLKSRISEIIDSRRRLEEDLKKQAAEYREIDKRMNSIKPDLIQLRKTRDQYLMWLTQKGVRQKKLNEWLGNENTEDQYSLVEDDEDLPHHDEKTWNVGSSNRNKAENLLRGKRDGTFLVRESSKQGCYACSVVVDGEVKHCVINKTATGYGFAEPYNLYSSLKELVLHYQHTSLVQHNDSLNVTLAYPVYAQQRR

Ki [1] | Ki | SMILES
563 pM | – | Nc1nc2cc(-c3nc4cc(N[C@H]5C[C@H](F)C5)cc5c4n3CCCO5)ccc2o1 (single isomer, unassigned) [Example 202, 1-(2-Aminobenzo[d]oxazol-5-yl)-N-((1r,3r)-3-fluorocyclobutyl)-8,9-dihydro-7H-6-oxa-2,9a-diazabenzo[cd]azulen-4-amine]
1370 pM | – | Nc1nc2cc(-c3nc4cc(N[C@H]5C[C@@H](F)C5)cc5c4n3CCCO5)ccc2o1 (single isomer, unassigned) [Example 203, 1-(2-Aminobenzo[d]oxazol-5-yl)-N-((1s,3s)-3-fluorocyclobutyl)-8,9-dihydro-7H-6-oxa-2,9a-diazabenzo[cd]azulen-4-amine]
309 pM | – | NC(=O)[C@H](C1CC1)n1cc(-c2cc3c4c(c2)nc(-c2ccc5oc(N)nc5c2)n4CCCO3)cn1 (single isomer, unassigned) [Example 230]
437 pM | – | NC(=O)[C@@H](C1CC1)n1cc(-c2cc3c4c(c2)nc(-c2ccc5oc(N)nc5c2)n4CCCO3)cn1 (single isomer, unassigned) [Example 231]
311 pM | – | COC[C@](C)(C(N)=O)n1cc(-c2cc3c4c(c2)nc(-c2ccc5oc(N)nc5c2)n4CCCO3)cn1 (single isomer, unassigned) [Example 232]
119 pM | – | COC[C@@](C)(C(N)=O)n1cc(-c2cc3c4c(c2)nc(-c2ccc5oc(N)nc5c2)n4CCCO3)cn1 (single isomer, unassigned) [Example 233]
1280 pM | – | CC[C@@H](Oc1cc2c3c(c1)nc(-c1ccc(-c4nc[nH]n4)cc1)n3CCCCO2)C(N)=O (single isomer, unassigned) [Example 267]
21.4 pM | – | CC[C@H](Oc1cc2c3c(c1)nc(-c1ccc(-c4nc[nH]n4)cc1)n3CCCCO2)C(N)=O (single isomer, unassigned) [Example 268]
754 pM | – | C[C@@H](Oc1cc2c3c(c1)nc(-c1ccc4sc(N)nc4c1)n3CCCCO2)C(N)=O (single isomer, unassigned) [Example 275]
113 pM | – | C[C@H](Oc1cc2c3c(c1)nc(-c1ccc4sc(N)nc4c1)n3CCCCO2)C(N)=O (single isomer, unassigned) [Example 276]
208 pM | – | C[C@H](Oc1cc2c3c(c1)nc(-c1cc4sc(N)nc4cc1F)n3CCCCO2)C(N)=O (single isomer, unassigned) [Example 277]
4600 pM | – | C[C@@H](Oc1cc2c3c(c1)nc(-c1cc4sc(N)nc4cc1F)n3CCCCO2)C(N)=O (single isomer, unassigned) [Example 278]
1020 pM | – | NC(=O)[C@H](Oc1cc2c3c(c1)nc(-c1cc(F)c4nc(N)sc4c1)n3CCCCO2)C1CC1 (single isomer, unassigned) [Example 279]
< 20 pM | – | NC(=O)[C@@H](Oc1cc2c3c(c1)nc(-c1cc(F)c4nc(N)sc4c1)n3CCCCO2)C1CC1 (single isomer, unassigned) [Example 280]
27 pM | – | NC(=O)[C@@H](Oc1cc2c3c(c1)nc(-c1ccc4nc(N)sc4c1)n3CCCCO2)C1CC1 (single isomer, unassigned) [Example 281]
5530 pM | – | NC(=O)[C@H](Oc1cc2c3c(c1)nc(-c1ccc4nc(N)sc4c1)n3CCCCO2)C1CC1 (single isomer, unassigned) [Example 282]
72 pM | – | C[C@H](Oc1cc2c3c(c1)nc(-c1ccc4nc(N)sc4c1F)n3CCCCO2)C(N)=O (single isomer, unassigned) [Example 286]
1710 pM | – | C[C@@H](Oc1cc2c3c(c1)nc(-c1ccc4nc(N)sc4c1F)n3CCCCO2)C(N)=O (single isomer, unassigned) [Example 287]
38 pM | – | CC[C@@H](C(N)=O)n1cc(-c2cc3c4c(c2)nc(-c2ccc5oc(N)nc5n2)n4CCCCO3)cn1 (single isomer, unassigned) [Example 301]
102 pM | – | CC[C@H](C(N)=O)n1cc(-c2cc3c4c(c2)nc(-c2ccc5oc(N)nc5n2)n4CCCCO3)cn1 (single isomer, unassigned) [Example 302]
5620 pM | – | COC[C@H](Oc1cc2c3c(c1)nc(-c1ccc4nc(N)sc4c1)n3CCCCO2)C(N)=O (single isomer, unassigned) [Example 303]

Ki [1] | Ki | SMILES
127 pM | – | COC[C@@H](Oc1cc2c3c(c1)nc(-c1ccc4nc(N)sc4c1)n3CCCCO2)C(N)=O (single isomer, unassigned) [Example 304]
< 20 pM | – | NC(=O)[C@@H](Oc1cc2c3c(c1)nc(-c1ccc(-c4ncn[nH]4)c(F)c1)n3CCCCO2)C1CC1 (single isomer, unassigned) [Example 305]
720 pM | – | NC(=O)[C@H](Oc1cc2c3c(c1)nc(-c1ccc(-c4ncn[nH]4)c(F)c1)n3CCCCO2)C1CC1 (single isomer, unassigned) [Example 306]
– | 31 pM | CC[C@@H](C(N)=O)n1cc(-c2cc3c4c(c2)nc(-c2ccc5oc(N)nc5n2)n4CCCO3)cn1 (single isomer, unassigned) [Example 311]
– | 39 pM | CC[C@H](C(N)=O)n1cc(-c2cc3c4c(c2)nc(-c2ccc5oc(N)nc5n2)n4CCCO3)cn1 (single isomer, unassigned) [Example 312]
737 pM | – | COC[C@@H](Oc1cc2c3c(c1)nc(-c1ccc4nc(N)sc4n1)n3CCCCO2)C(N)=O (single isomer, unassigned) [Example 314]
< 20 pM | – | COC[C@H](Oc1cc2c3c(c1)nc(-c1ccc4nc(N)sc4n1)n3CCCCO2)C(N)=O (single isomer, unassigned) [Example 315]
7750 pM | – | Nc1nc2cc(-c3nc4cc(Br)cc5c4n3CCCO5)ccc2o1 [Example 101, 5-(4-Bromo-8,9-dihydro-7H-6-oxa-2,9a-diazabenzo[cd]azulen-1-yl)benzo [d]oxazol 2-amine]
322000 pM | – | Cc1nc2nc(-c3nc4cc(Br)cc5c4n3CCCO5)ccc2o1 [Example 102, 4-bromo-1-(2-methyloxazolo[4,5-b]pyridin-5-yl)-8,9-dihydro-7H-6-oxa-2,9a-diazabenzo[cd]azulene]
16200 pM | – | Cc1nc2cc(-c3nc4cc(N5CCCC5C(N)=O)cc5c4n3CCCO5)ccc2o1 (centres unmarked) [Example 103, 1-(1-(2-methylbenzo[d]oxazol-5-yl)-8,9-dihydro-7H-6-oxa-2,9a-diazabenzo[cd]azulen-4-yl)pyrrolidine-2-carboxamide]
32 pM | – | C[C@H](Nc1cc2c3c(c1)nc(-c1ccc4oc(N)nc4c1)n3CCCO2)C(N)=O [Example 105, (S)-2-((1-(2-Aminobenzo[d]oxazol-5-yl)-8,9-dihydro-7H-6-oxa-2,9a-diazabenzo[cd]azulen-4-yl)amino)propanamide]
130000 pM | – | C[C@H](Nc1cc2c3c(c1)nc(-c1ccccc1)n3CCCO2)C(N)=O [Example 106, (S)-2-((1-phenyl-8,9-dihydro-7H-6-oxa-2,9a-diazabenzo[cd]azulen-4-yl)amino)propanamide]
580 pM | – | C[C@@H](Nc1cc2c3c(c1)nc(-c1ccc4oc(N)nc4c1)n3CCCO2)C(N)=O [Example 107, (R)-2-((1-(2-Aminobenzo[d]oxazol-5-yl)-8,9-dihydro-7H-6-oxa-2,9a-diazabenzo[cd]azulen-4-yl)amino)propanamide]
22100 pM | – | C[C@H](Nc1cc2c3c(c1)nc(-c1cccnc1)n3CCCO2)C(N)=O [Example 108, (S)-2-((1-(Pyridin-3-yl)-8,9-dihydro-7H-6-oxa-2,9a-diazabenzo[cd]azulen-4-yl)amino)propanamide]
24300 pM | – | C[C@H](Nc1cc2c3c(c1)nc(-c1ccncn1)n3CCCO2)C(N)=O [Example 109, (S)-2-((1-(pyrimidin-4-yl)-8,9-dihydro-7H-6-oxa-2,9a-diazabenzo[cd]azulen-4-yl)amino)propanamide]
261000 pM | – | C[C@H](Nc1cc2c3c(c1)nc(-c1ccc(C#N)cn1)n3CCCO2)C(N)=O [Example 110, (S)-2-((1-(5-Cyanopyridin-2-yl)-8,9-dihydro-7H-6-oxa-2,9a-diazabenzo[cd]azulen-4-yl)amino)propanamide]
11600 pM | – | COc1ccc(-c2nc3cc(N[C@@H](C)C(N)=O)cc4c3n2CCCO4)cn1 [Example 111, (S)-2-((1-(6-Methoxypyridin-3-yl)-8,9-dihydro-7H-6-oxa-2,9a-diazabenzo[cd]azulen-4-yl)amino)propanamide]
160000 pM | – | C[C@H](Nc1cc2c3c(c1)nc(-c1ccccn1)n3CCCO2)C(N)=O [Example 112, (S)-2-((1-(Pyridin-2-yl)-8,9-dihydro-7H-6-oxa-2,9a-diazabenzo[cd]azulen-4-yl)amino)propanamide]
268000 pM | – | NC(=O)[C@@H](Nc1cc2c3c(c1)nc(-c1ccc4c(c1)OC(F)(F)O4)n3CCCO2)C1CC1 [Example 113, (S)-2-Cyclopropyl-2-((1-(2,2-difluorobenzo[d][1,3]dioxol-5-yl)-8,9-dihydro-7H-6-oxa-2,9a-diazabenzo[cd]azulen-4-yl)amino)acetamide]
23300 pM | – | NC(=O)[C@@H](Nc1cc2c3c(c1)nc(-c1ccc4c(c1)OCO4)n3CCCO2)C1CC1 [Example 114, (S)-2-((1-(Benzo[d][1,3]dioxol-5-yl)-8,9-dihydro-7H-6-oxa-2,9a-diazabenzo[cd]azulen-4-yl)amino)-2-cyclopropylacetamide]
